The text below walks through data of ChEMBL document CHEMBL2384902, “Synthesis and ionophoric activities of functionalized bis(choloyl) conjugates with a rigid core” (Bioorg Med Chem Lett, 2013).

Series [1] is described as follows: Ionophoric activity across egg-yolk L-alpha-phosphatidylcholine-based liposomal membranes (unknown origin) assessed as change in fluorescence intensity at 3 mol % by pyranine dye-based method in presence of chloride ions in internal and sulfate ions in external vesicles. The conditions noted are these: artificial membrane. The series is classed as physicochemical.

Series [2] in a line: Ionophoric activity across egg-yolk L-alpha-phosphatidylcholine-based liposomal membranes (unknown origin) assessed as induction of pH discharge at 0.5 to 3 mol % at internal pH 7 and external aqueous phase pH 8 by pyranine dye-based method. Conditions: artificial membrane; call rule not given here. The class given is physicochemical.
Series [3] in a line: Ratio of k2 to K for ionophoric activity across egg-yolk L-alpha-phosphatidylcholine-based liposomal membranes (unknown origin).
Series [4] in a line: Ionophoric activity across egg-yolk L-alpha-phosphatidylcholine-based liposomal membranes (unknown origin) assessed as induction of pH discharge at internal pH 7 and external aqueous phase pH 8 by pyranine dye-based method. The class given is physicochemical. Conditions: artificial membrane.

For the compound `CC(=O)NCCCCC(NC(=O)CC[C@@H](C)[C@H]1CC[C@H]2[C@@H]3[C@H](O)C[C@@H]4C[C@H](O)CC[C@]4(C)[C@H]3C[C@H](O)[C@]12C)C(=O)NCc1ccc(CNC(=O)C(CCCCNC(C)=O)NC(=O)CC[C@@H](C)[C@H]2CC[C@H]3[C@@H]4[C@H](O)C[C@@H]5C[C@H](O)CC[C@]5(C)[C@H]4C[C@H](O)[C@]23C)cc1` (some centres not stated), the Activity result is recorded as “Not Active” in series [1] and “Active” in series [2].
With `C[C@H](CCC(=O)NCc1ccc(CNC(=O)CC[C@@H](C)[C@H]2CC[C@H]3[C@@H]4[C@H](O)C[C@@H]5C[C@H](O)CC[C@]5(C)[C@H]4C[C@H](O)[C@]23C)cc1)[C@H]1CC[C@H]2[C@@H]3[C@H](O)C[C@@H]4C[C@H](O)CC[C@]4(C)[C@H]3C[C@H](O)[C@]12C`, the Ratio (10'-5/min.mol%'-4) in series [3] came out at 9. For the same compound, in series [2], the outcome was Active.
In the case of `C[C@H](CCC(=O)NC(CCCCN)C(=O)NCc1ccc(CNC(=O)C(CCCCN)NC(=O)CC[C@@H](C)[C@H]2CC[C@H]3[C@@H]4[C@H](O)C[C@@H]5C[C@H](O)CC[C@]5(C)[C@H]4C[C@H](O)[C@]23C)cc1)[C@H]1CC[C@H]2[C@@H]3[C@H](O)C[C@@H]4C[C@H](O)CC[C@]4(C)[C@H]3C[C@H](O)[C@]12C` (some centres not stated), the Activity entry in series [1] was “Not Active”; in series [2], “Active”. Besides, the K in series [4] amounted to 1.81 ×10⁻² /min. In addition, the Ratio (10'-4/min.mol%'-4) in series [3] amounted to 5.2.
On the same counts, the results for `C[C@H](CCC(=O)NC(CCCCN)C(=O)Nc1ccc(NC(=O)C(CCCCN)NC(=O)CC[C@@H](C)[C@H]2CC[C@H]3[C@@H]4[C@H](O)C[C@@H]5C[C@H](O)CC[C@]5(C)[C@H]4C[C@H](O)[C@]23C)cc1)[C@H]1CC[C@H]2[C@@H]3[C@H](O)C[C@@H]4C[C@H](O)CC[C@]4(C)[C@H]3C[C@H](O)[C@]12C` (some centres not stated) are “Not Active”, “Active”, 1.81 ×10⁻² /min and 5.5.
